Data taken from ChEMBL document CHEMBL5120831, “Pep5-based antitumor peptides containing multifunctional fragments with enhanced activity and synergistic effect” (Eur J Med Chem, 2022).
Calls of active or inactive are those of the source. The calls are words filed in the database; no cut-off is given here. Bridge positions count the residues as written; N and C are the ends. Peptide text beside a SMILES is read from it. I, II: the chains in the order shown.

What was measured:
HepG2 [1] = assay: Cytotoxicity against human HepG2 cells assessed as reduction in cell viability measured after 24 hrs by CCK-8 assay; assay type: functional, cell-based; conditions: for IC50: HepG2, 24 h
[2] = Cytotoxicity against human L02 cells assessed as reduction in cell viability measured after 24 hrs by CCK-8 assay; assay type: toxicity, cell-based
A549 [3] = assay: Cytotoxicity against human A549 cells assessed as reduction in cell viability measured after 24 hrs by CCK-8 assay; assay type: functional, cell-based; conditions: for IC50: A549, 24 h
[4] = Cytotoxicity against human BEAS-2B cells assessed as reduction in cell viability measured after 24 hrs by CCK-8 assay; assay type: toxicity, cell-based
HepG2 [5] = assay: Induction of apoptosis in human HepG2 cells assessed as reduction in viable cells at 15 uM measured after 24 hrs by Annexin V-FITC/propidium iodide staining based flow cytometry; assay type: functional, cell-based
A549 [6] = assay: Induction of apoptosis in human A549 cells assessed as reduction in viable cells at 15 uM measured after 24 hrs by Annexin V-FITC/propidium iodide staining based flow cytometry; assay type: functional, cell-based
L02 = assay: Induction of apoptosis in human L02 cells assessed as reduction in viable cells at 15 uM measured after 24 hrs by Annexin V-FITC/propidium iodide staining based flow cytometry; assay type: toxicity, cell-based; conditions: l02, 24 h
BEAS-2B = assay: Induction of apoptosis in human BEAS-2B cells assessed as reduction in viable cells at 15 uM measured after 24 hrs by Annexin V-FITC/propidium iodide staining based flow cytometry; assay type: toxicity, cell-based
A549 [7] = assay: Induction of cell membrane disruption in human A549 cells assessed as increase in LDH release at 15 uM measured after 1 hr by LDH releasing reagent based assay
HepG2 [8] = assay: Induction of cell membrane disruption in human HepG2 cells assessed as increase in LDH release at 15 uM measured after 1 hr by LDH releasing reagent based assay
HepG2 [9] = assay: Induction of morphological changes in human HepG2 cells assessed as decrease in cell number at 15 uM measured after 24 hrs by high-throughput microscopy; assay type: functional, cell-based
HepG2 [10] = assay: Induction of morphological changes in human HepG2 cells assessed as appearance of abnormal cell morphology at 15 uM measured after 24 hrs by high-throughput microscopy; assay type: functional, cell-based
HepG2 [11] = assay: Induction of apoptosis in human HepG2 cells assessed as increase in late apoptotic cells at 15 uM measured after 24 hrs by Annexin V-FITC/propidium iodide staining based flow cytometry; assay type: functional, cell-based
HepG2 [12] = assay: Induction of apoptosis in human HepG2 cells assessed as increase in necrotic cells at 15 uM measured after 24 hrs by Annexin V-FITC/propidium iodide staining based flow cytometry; assay type: functional, cell-based
A549 [13] = assay: Induction of apoptosis in human A549 cells assessed as increase in late apoptotic cells at 15 uM measured after 24 hrs by Annexin V-FITC/propidium iodide staining based flow cytometry; assay type: functional, cell-based
A549 [14] = assay: Induction of apoptosis in human A549 cells assessed as increase in necrotic cells at 15 uM measured after 24 hrs by Annexin V-FITC/propidium iodide staining based flow cytometry; assay type: functional, cell-based
HepG2 [15] = assay: Antitumor activity against human HepG2 cells xenografted in sc dosed BALB/c nude mouse assessed as tumor growth inhibition administered at 1 day interval for 9 days; assay type: functional, organism-based; conditions: dose 25-50 µM, time 9.0 day, DDE = dose-dependent effect
HepG2 [16] = assay: Antitumor activity against human HepG2 cells xenografted in BALB/c nude mouse assessed as reduction in tumor volume at 25 to 50 uM, sc administered at 1 day interval for 9 days; assay type: functional, organism-based; conditions: dose 25-50 µM, time 9.0 day
[17] = Toxicity in HepG2 cell xenografted BALB/c nude mouse assessed as change in body weight at 25 to 50 uM, sc administered at 1 day interval for 9 days; assay type: organism-based; conditions: in vivo, 216 h, dose 25-50 µM, time 9 day
HepG2 [18] = assay: Antitumor activity against human HepG2 cells xenografted in BALB/c nude mouse assessed as appearance of fuzzy boundary region at 25 to 50 uM, sc administered at 1 day interval for 9 days and measured on day 11 by H and E staining based histological analysis; assay type: functional, organism-based; conditions: dose 25-50 µM, time 11.0 day
HepG2 [19] = assay: Antitumor activity against human HepG2 cells xenografted in BALB/c nude mouse assessed as missing nuclei at 25 to 50 uM, sc administered at 1 day interval for 9 days and measured on day 11 by H and E staining based histological analysis; assay type: functional, organism-based; conditions: dose 25-50 µM, time 11.0 day
HepG2 [20] = assay: Antitumor activity against human HepG2 cells xenografted in BALB/c nude mouse assessed as induction of apoptosis at 25 to 50 uM, sc administered at 1 day interval for 9 days and measured on day 11 by TUNEL staining based assay; assay type: functional, organism-based; conditions: dose 25-50 µM, time 11.0 day

Row | SMILES | IC50 (HepG2 [1]) [µM] | IC50 at 24 h [2] [µM] | IC50 (A549 [3]) [µM] | IC50 at 24 h [4] [µM] | Activity (L02) | Activity (BEAS-2B) | Activity (A549 [7]) | Activity (HepG2 [8]) | also measured
1 | CC[C@H](C)[C@H](NC(=O)[C@H](CCCCN)NC(=O)[C@H](CC(N)=O)NC(=O)[C@H](CCCNC(=N)N)NC(=O)[C@H](Cc1ccccc1)NC(=O)[C@H](CCCCN)NC(=O)[C@H](CCCNC(=N)N)NC(=O)[C@H](CC(C)C)NC(=O)[C@H](CCCNC(=N)N)NC(=O)[C@H](CCCCNC(=O)[C@H](CCCCN)NC(=O)[C@H](CCC(=O)O)NC(=O)[C@H](CCCCN)NC(=O)[C@@H](NC(=O)[C@H](CCCCN)NC(=O)[C@H](CC(N)=O)NC(=O)[C@H](CCCNC(=N)N)NC(=O)[C@H](Cc1ccccc1)NC(=O)[C@H](CCCCN)NC(=O)[C@H](CCCNC(=N)N)NC(=O)[C@H](CC(C)C)NC(=O)[C@H](CCCNC(=N)N)NC(=O)[C@H](CCCCN)NC(=O)[C@H](CCCNC(=N)N)NC(=O)[C@H](CC(C)C)NC(=O)CN)[C@@H](C)CC)NC(=O)[C@H](CCCNC(=N)N)NC(=O)[C@H](CC(C)C)NC(=O)CN)C(=O)N[C@@H](CCCCN)C(=O)N[C@@H](CCC(=O)O)C(=O)N[C@@H](CCCCN)C(=O)O (I: H-GLRKRLRKFRNKIKEK / II: H-GLRKRLRKFRNKIKEK-OH; amide I:C-II:4) | 34.8 | 70.7 | 56.2 | 93.6 | Non-Toxic | Non-Toxic | Active | Active | Activity (HepG2 [5]): Active; Activity (A549 [6]): Active
2 | CC(C)C[C@H](NC(=O)[C@H](CCCCN)NC(=O)CNC(=O)[C@H](CC(C)C)NC(=O)[C@@H](NC(=O)[C@@H](NC(=O)[C@H](CC(C)C)NC(=O)[C@H](CCC(=O)O)NC(=O)[C@@H](N)Cc1c[nH]c2ccccc12)C(C)C)C(C)C)C(=O)N[C@@H](Cc1ccc(O)cc1)C(=O)NCC(=O)N[C@@H](CCCNC(=N)N)C(=O)N[C@@H](CCCCN)C(=O)N[C@@H](CCCCN)C(=O)N[C@@H](CCCNC(=N)N)C(=O)N[C@@H](CCCNC(=N)N)C(=O)N[C@@H](CCC(N)=O)C(=O)N[C@@H](CCCNC(=N)N)C(=O)N[C@@H](CCCNC(=N)N)C(=O)N[C@@H](CCCNC(=N)N)C(=O)O (H-WELVVLGKLYGRKKRRQRRR-OH) | 31.2 | 63.9 | 30.9 | 32.9 | Non-Toxic | Non-Toxic | Active | Active | Activity (HepG2 [1]; DDE = dose-dependent effect): Dde; Activity (A549 [3]; DDE = dose-dependent effect): Dde; Activity (HepG2 [9]): Active; Activity (HepG2 [10]): Active; Activity (HepG2 [11]): Active; Activity (HepG2 [12]): Active; Activity (A549 [13]): Active; Activity (A549 [14]): Active; TGI (HepG2 [15]): Dde; Activity (HepG2 [16]): Active; Activity [17]: Non-Toxic; Activity (HepG2 [18]): Active; Activity (HepG2 [19]): Active; Activity (HepG2 [20]): Active
